Assay results: publication PMC7358525, “Characterization of PF-6142, a Novel, Non-Catecholamine Dopamine Receptor D1 Agonist, in Murine and Nonhuman Primate Models of Dopaminergic Activation” (Frontiers in Pharmacology, 2020)

How the values were obtained:
[1] = Plasma exposure (PK), NHP; assay type: in vivo; settings: 0.1 mg/kg SC, 0.5 h
Method: Across the set of experiments, PK was either collected from satellite animals or in separate, dedicated studies. In addition to plasma PK, exposures were obtained in brain tissue for rat and mouse, and plasma protein binding and brain tissue binding were measured. Using the measured exposures, partitioning, and binding parameters, and the […]

[2] = tested on: conditioned avoidance responding; test: Rat conditioned avoidance response (CAR); assay type: in vivo
Method: The CAR assay was performed under similar conditions previously described ([Marquis et al., 2011]) at WuXiAppTec Inc. (Delin Rd. #90, Waigaoquiao Free Trade Zone, Shanghai 200131, China). For this study, adult male Fisher-344 rats were trained and tested in a two-way active avoidance apparatus with MED-PC software (MED Associates, St. Albans, VT, USA).
Briefly, subjects were handled and acclimated to the shuttle boxes for 2 d prior to training sessions. During training sessions, subjects were trained to avoid an electric footshock by moving to the adjacent, non-stimulus side of the shuttle box upon presentation of tone + light stimuli which preceded the presentation of the footshock (0.6 mA, 10 s duration) by 10 s. For this assay an avoidance was defined as moving to the adjacent compartment during the tone+light presentation that preceded the shock, an escape was defined as moving to the adjacent compartment upon presentation of the shock, and an escape failure was defined as a lack of relocation to the adjacent compartment throughout the presentation of the shock. Subjects received 30 trials of training per day for 5 d. Subjects with ≥ 80% avoidance responses on two consecutive days with no escape failures, were considered qualified for testing, and were randomized across treatment groups (n=8–9 per treatment group). […] Avoidance responding was calculated as % of the number of total trials in which an avoidance occurred. Data were calculated for each animal and compared across treatment groups using one-way ANOVA with Dunnett’s post-test versus the vehicle + vehicle treated group.

human D1 receptor = settings: stated in discussion, no data or reference printed; cited from earlier work

With `Cc1cc(Oc2nccc3occc23)ccc1-c1c(C)ncc2nccn12` [PF-6142] the PF-6142 plasma concentration [1] was 31 ng/mL, the “% avoidance responses” value ([2]; PF-6142 1.78 mg/kg s.c. + risperidone 0.1 mg/kg s.c.) was 76.25% and the “% avoidance responses” value ([2]; PF-6142 1.78 mg/kg s.c. + risperidone 0.56 mg/kg s.c.) was 8.125%. For the same molecule, the “% avoidance responding” value ([2]; PF-6142 1.78 mg/kg s.c. alone, combination study (Figure 4D)) was 94.38%, the “mean % avoidance responses” value ([2]; PF-6142 alone 0.32 mg/kg s.c.) was 95.93% and the “mean % avoidance responses” value ([2]; PF-6142 alone 1.78 mg/kg s.c., dose-range study) was 98.47%. For the same molecule, the “mean % avoidance responses” value ([2]; PF-6142 alone 3.2 mg/kg s.c.) was 95.57%, the “mean % avoidance responses” value ([2]; PF-6142 alone 5.6 mg/kg s.c.) was 95.75% and the affinity (human D1 receptor) was “moderate affinity”.
